# Measured values from patent US20070299079A1, “4-AMINO-PYRIDO[3,2-e]PYRAZINES, THEIR USE AS INHIBITORS OF PHOSPHODIESTERASE 10, AND PROCESSES FOR PREPARING THEM” (priority 2006, published 2007).
# System: not given
# Assay: not given
# Conditions: not given
row,Compound,melting point [°C]
1,"CON1C=C2C=NC3=C(N(CCC(F)(F)F)CC(C)=C3N)N2C1 [Example 8, 4-amino-8-methoxy-3-methyl-1-(3,3,3-trifluoropropyl)-imidazo[1,5-a]pyrido[3,2-e]pyrazine]",273 to 276
2,"CCCN1CC(C)=C(N(C)C)C2=C1N1CN(OC)C=C1C=N2 [Example 19, 4-(N,N-dimethyl-amino)-8-methoxy-3-methyl-1-propyl-imidazo[1,5-a]pyrido[3,2-e]pyrazine]",93 to 95
3,"CCCCNC1=C(C)CN(CC)C2=C1N=CC1=CN(OC)CN12 [Example 20, 4-(N-butyl-amino)-1-ethyl-8-methoxy-3-methyl-imidazo[1,5-a]pyrido[3,2-e]pyrazine]",62 to 65
4,"CCN1CC(C)=C(NCc2ccccc2)C2=C1N1CN(OC)C=C1C=N2 [Example 21, 4-(N-benzyl-amino)-1-ethyl-8-methoxy-3-methyl-imidazo[1,5-a]pyrido[3,2-e]pyrazine]",127 to 128
5,"CCCN1CC(C)=C(NC2CCCC2)C2=C1N1CN(OC)C=C1C=N2 [Example 23, 4-(N-cyclopentyl-amino)-8-methoxy-3-methyl-1-propyl-imidazo[1,5-a]pyrido[3,2-e]pyrazine]",77 to 80
6,"CCN1CC(C)=C(N2CCOCC2)C2=C1N1CN(OC)C=C1C=N2 [Example 24, 1-ethyl-8-methoxy-3-methyl-4-morpholino-imidazo[1,5-a]pyrido[3,2-e]pyrazine]",132 to 133
7,"CCCN1CC(C)=C(n2ccnn2)C2=C1N1CN(OC)C=C1C=N2 [Example 32, 8-methoxy-3-methyl-1-propyl-4-(1,2,3-triazol-1-yl)-imidazo[1,5-a]pyrido[3,2-e]pyrazine]",218 to 220
8,"CCCN1CC(C)=C(N(C(C)=O)C(C)=O)C2=C1N1CN(OC)C=C1C=N2 [Example 39, 4-(N,N-diacetyl-amino)-8-methoxy-3-methyl-1-propyl-imidazo[1,5-a]pyrido[3,2-e]pyrazine]",135 to 138
9,"CCN1CC(C)=C(N(C(C)=O)C(C)=O)C2=C1N1CN(OC)C=C1C=N2 [Example 41, 4-(N,N-diacetyl-amino)-1-ethyl-8-methoxy-3-methyl-imidazo[1,5-a]pyrido[3,2-e]pyrazine]",135 to 136

# Second part, the compound after the results:
row,melting point [°C],Compound
1,224 to 227,CCN1CC(C)=C(N2CCN(c3ccccc3)CC2)C2=C1N1CN(OC)C=C1C=N2
2,252 to 253,"CON1C=C2C=Nc3c(ncc(-c4ccccc4)c3N)N2C1 [Example 15, 4-amino-8-methoxy-3-phenyl-imidazo[1,5-a]pyrido[3,2-e]pyrazine]"
3,111 to 113,"CCCN1CC(C)=C(NC)C2=C1N1CN(OC)C=C1C=N2 [Example 16, 4-(N-methyl-amino)-8-methoxy-3-methyl-1-propyl-imidazo[1,5-a]pyrido[3,2-e]pyrazine]"
4,140 to 142,"CCCN1CC(C)=C(NCC)C2=C1N1CN(OC)C=C1C=N2 [Example 17, 4-(N-ethyl-amino)-8-methoxy-3-methyl-1-propyl-imidazo[1,5-a]pyrido[3,2-e]pyrazine]"
5,93 to 95,"CCN1CC(C)=C(NC2CCCC2)C2=C1N1CN(OC)C=C1C=N2 [Example 22, 4-(N-cyclopentyl-amino)-1-ethyl-8-methoxy-3-methyl-imidazo[1,5-a]pyrido[3,2-e]pyrazine]"
6,210 to 213,"CCCN1CC(C)=C(NC(C)=O)C2=C1N1CN(OC)C=C1C=N2 [Example 38, 4-(N-acetyl-amino)-8-methoxy-3-methyl-1-propyl-imidazo[1,5-a]pyrido[3,2-e]pyrazine]"

# Target: T1, PDE10 from pig striatum (Sus scrofa, UniProt A0A287B941)
# Assay: Inhibition of PDE10 from pig striatum
# Conditions: read-out: Km value of the substrate for PDE10 from pig striatum
# Protocol: For the enzymatic testing of PDE10 activity 0.5 g of the isolated and frozen striatum was homogenised in 10 ml 50 mM Tris/Mg-buffer at 4° C. and centrifuged for one hour at 100000 g. The supernatant is called the cytosolic fraction and was removed and stored on ice. The pellet was resuspended in the same buffer, but containing 1% Triton and incubated for 45 min at 4° C. Both fractions were independently applied onto a 5 ml Hi Trap™ QHP column at the Äkta-FPLC. After washing the columns the bound PDE protein was eluted with an increasing sodium chloride gradient (0 mM-500 mM sodium chloride) in 50 mM Tris/Mg-buffer at 4° C. for the cytosolic fraction and in the presence of 1% Triton for the membrane fraction. […] The fractions with PDE10-activity were pooled and frozen in aliquots until use at −20° C.
# PDE10 activity was determined in a one step procedure in microtiterplates. […] Nonspecific activity was tested without the enzyme. The reaction was initiated by addition of the substrate solution and was carried out at 37° C. for 30 minutes. Enzymatic activity was stopped by addition of 25 μl YSi—SPA-beads (Amersham-Pharmacia). One hour later the mixture was measured in a liquid scintillation counter for microtiterplates (Microbeta Trilux). To pipette the incubation mixture a robot Biomek (Fa. Beckman) is used. […] For determination of IC50 values the Hill-plot, 2-parameter-model, was used.
row,Km [µM],Compound
1,2.2,Nc1nc2c(ncn2[C@@H]2O[C@@H]3COP(=O)(O)O[C@H]3[C@H]2O)c(=O)[nH]1 [cGMP]

# Target: T2, PDE10 from rat striatum (Rattus norvegicus, UniProt Q9QYJ6)
# T2 construct: 0.5 g of the isolated and frozen striatum was homogenised; from tissue; host or cells: striatum of male Wistar rats, anion-exchange FPLC fractions
# T2 sequence (Q9QYJ6 1-794): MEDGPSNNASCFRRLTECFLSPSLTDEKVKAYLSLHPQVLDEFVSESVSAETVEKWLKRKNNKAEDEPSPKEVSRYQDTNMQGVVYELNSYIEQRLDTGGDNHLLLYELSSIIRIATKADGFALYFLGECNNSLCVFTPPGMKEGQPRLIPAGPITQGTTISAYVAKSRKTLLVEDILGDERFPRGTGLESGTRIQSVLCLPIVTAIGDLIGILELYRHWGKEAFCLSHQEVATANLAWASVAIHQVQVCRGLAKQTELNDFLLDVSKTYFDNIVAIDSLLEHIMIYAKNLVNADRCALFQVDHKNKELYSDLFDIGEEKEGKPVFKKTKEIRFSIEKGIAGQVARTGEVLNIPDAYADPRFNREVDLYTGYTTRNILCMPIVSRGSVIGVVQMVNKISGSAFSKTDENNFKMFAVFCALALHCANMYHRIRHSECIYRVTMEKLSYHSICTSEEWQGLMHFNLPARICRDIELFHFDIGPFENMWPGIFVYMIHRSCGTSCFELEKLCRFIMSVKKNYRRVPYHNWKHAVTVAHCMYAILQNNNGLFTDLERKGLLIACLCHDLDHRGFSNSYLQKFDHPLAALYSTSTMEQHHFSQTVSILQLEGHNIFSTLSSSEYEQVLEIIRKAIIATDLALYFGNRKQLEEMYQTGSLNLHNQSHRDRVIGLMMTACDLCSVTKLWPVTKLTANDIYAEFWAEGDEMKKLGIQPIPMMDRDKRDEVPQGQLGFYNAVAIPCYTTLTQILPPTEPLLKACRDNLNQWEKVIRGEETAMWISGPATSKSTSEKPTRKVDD
# Assay: Inhibition of PDE10 from rat striatum
# Assay type: biochemical
# Conditions: not given
# Protocol: Phosphodiesterase isoenzyme 10 (PDE10) activity was determined in preparations of rat, pig and guinea pig striatum respectively. Striatum from male Wistar rats (180-200 g), male hybrid pigs (150 kg) and male guinea pigs (CRL (HA), 500 g) respectively were collected and frozen at −70° C.
# For the enzymatic testing of PDE10 activity 0.5 g of the isolated and frozen striatum was homogenised in 10 ml 50 mM Tris/Mg-buffer at 4° C. and centrifuged for one hour at 100000 g.
# Nonspecific activity was tested without the enzyme. […] For determination of IC50 values the Hill-plot, 2-parameter-model, was used.
row,Compound,IC50 [nM]
1,"COc1ccc(Cc2nccc3cc(OC)c(OC)cc23)cc1OC [Papaverine, reference compound]",142

# Same assay, conditions: rat striatum preparation, 0.1 μM [3H]-cAMP, 37° C., 30 minutes; read-out: Inhibition of PDE10 from rat IC50
row,IC50 [nM],Compound
1,237,COc1ccc2nc(Cl)c3cnc(C(C)C)n3c2n1 [Intermediate A14]

# Same assay, conditions: substrate Km, rat striatum
row,Km [µM],Compound
1,1.8,Nc1nc2c(ncn2[C@@H]2O[C@@H]3COP(=O)(O)O[C@H]3[C@H]2O)c(=O)[nH]1 [cGMP]

# Target: T1, PDE10 from pig striatum
# Assay: not given
# Conditions: not given
row,IC50 [nM],Compound
1,25,"8-methoxy-3-methyl-1-propyl-4-(1,2,4-triazol-1-yl)-imidazo[1,5-a]pyrido[3,2-e]pyrazine [Example 33]"
2,137,"8-methoxy-3-methyl-1-propyl-4-pyrrolidino-imidazo[1,5-a]pyrido[3,2-e]pyrazine [Example 26]"
3,395,"8-methoxy-3-methyl-4-(2-methyl-imidazol-1-yl)-1-propyl-imidazo[1,5-a]pyrido[3,2-e]pyrazine [Example 34]"
4,302,"8-methoxy-3-methyl-4-piperidino-1-propyl-imidazo[1,5-a]pyrido[3,2-e]pyrazine [Example 27]"

row,Compound,IC50 [nM]
1,"8-methoxy-3-methyl-1-propyl-4-(pyrazol-1-yl)-imidazo[1,5-a]pyrido[3,2-e]pyrazine hydro chloride [Example 30]",155

# System: MK-801-induced hyperactivity and stereotyped sniffing
# Assay: MK-801-induced hyperactivity and stereotyped sniffing, animal model of psychosis
# Assay type: in vivo, rat
# Conditions: female Wistar rats, p.o. 30 min prior to test, MK-801 0.1 mg/kg i.p., activity recorded 1 h
# Protocol: Female Wistar rats (Crl: (WI) BR, Charles River, Sulzfeld, Germany) weighing 150 to 180 g were used for the MK-801-induced psychosis. Animals were housed under standard conditions in groups of five on a 12 h light/dark cycle (light on at 0600 h) with ad libitum access to food (Pellets, ssniff M/R 15, Spezialdiät GmbH, Soest/Westfalen) and water.
# MK-801 (dizocilpine, MW 337.37) was obtained by Tocris, distributed by Biotrend Chemikalien GmbH, Köln, Germany.
# Hydroxyethylcellulose was solved in distilled water.
# MK-801 was dissolved in saline so that an administration volume of 0.5 ml/100 g was reached. The suspensions and solution were placed on a magnetic stirrer before and during dosing procedures.
# The behaviour induced by the NMDA antagonist MK-801 is generally accepted as a rat model of psychosis. MK-801 induces stereotyped sniffing and hyperactivity in rats after intraperitoneal administration.
# Locomotor activity of the rats was recorded by the MotiTest Apparatus (TSE, Bad Homburg, Germany). The test area consisted of a squared arena (45×45 cm) with protective plexiglass walls (20 cm of height) where rats could freely move. Horizontal movements were recorded by 32 infrared photocells arranged along the bottom of each wall of the arena. Activity [sec] was measured by the computer program “ActiMot” (TSE, Bad Homburg, Germany).
# Stereotyped sniffing was scored by the experimenter every five minutes for one hour (12 intervals) according to the method described by Andiné et al. (1999). The scores of the 12 intervals were summed up at the end of the experiment.
# The day of experiment the female rats were placed in the laboratory and received the test compound or vehicle at the appropriate time prior to test. MK-801 0.1 mg/kg was intraperitoneally administered 10 minutes prior to test.
# At the beginning of the test the rats were placed in the centre of the squared arena of the MotiTest apparatus. Behaviour of the rats was recorded for one hour. After each run animals were removed and the boxes thoroughly cleaned and dried.
# Results were analysed by one way analysis of variance (ANOVA). Tukey test was used for individual comparison. P<0.05 was regarded as significant.
# MK-801 at 0.1 mg/kg i.p. was administered 10 min before testing. […] Activity and stereotyped sniffing was recorded for 1 h. Co=control without MK-801 stimulation, Cs=control with MK-801 stimulation. Significant to MK-801 stimulated control (=Cs): * p<0.05, *** p<0.001.
row,Compound,Dose from which MK-801-induced hyperactivity is significantly reversed [mg/kg]
1,"4-amino-1-(2-chloro-phenyl)-8-methoxy-3-methyl-imidazo[1,5-a]pyrido[3,2-e]pyrazine [Example 11]",≥ 0.5
2,"4-amino-8-methoxy-3-methyl-1-propyl-imidazo[1,5-a]pyrido[3,2-e]pyrazine [Example 1]",≥ 10

# Same assay, conditions: female Wistar rats, p.o. 30 min prior to test, MK-801 0.1 mg/kg i.p., sniffing scored 1 h
row,Compound,Dose from which MK-801-induced stereotyped sniffing is significantly reversed [mg/kg]
1,"4-amino-1-(2-chloro-phenyl)-8-methoxy-3-methyl-imidazo[1,5-a]pyrido[3,2-e]pyrazine [Example 11]",≥ 0.5
2,"4-amino-8-methoxy-3-methyl-1-propyl-imidazo[1,5-a]pyrido[3,2-e]pyrazine [Example 1]",≥ 10
